Measured values reported in patent US20120004122A1, “Diagnostic Marker for Migraine and Use Thereof” (priority 2005, published 2012).

The compounds below were run on α-fodrin gene (assay: α-fodrin gene expression in lymphocyte-derived immortalized cells before and after drug administration (real-time PCR)). Details: EB virus-immortalized cells derived from lymphocytes of the migraine group and the healthy group; before vs after administration of the drug to cells in culture; FIG. 2.
Format: cell-based, human
Source text: Peripheral bloods were harvested from 5 patients having an aura of migraine, as diagnosed according to the International Classification of Headache Disorders 2nd Edition (ICHD-II) of the International Headache Society as well as from 5 healthy subjects constituting a control group who are matched with the 5 patients in terms of age and sex. From the migraine subjects, their bloods were drawn during an interval between migraine attacks. Their lymphocytes were isolated by centrifugation from the peripheral bloods collected from each group.
The lymphocytes of each group were infected by adding 1 mL of EB virus supernatant (the culture supernatant of B958 cells, EB virus-producing cells) to the lymphocytes at 2×10^6 cells and 2 μL of 100-fold diluted cyclosporin solution (original solution of cyclosporin (Sandimmun 1A (5 ml) 250 mg) to the lymphocytes at 2×10^6 cells, followed by incubation in RPMI(+) medium for about four days. Then, cell lines established by continuous passaging in the same medium were used as the lymphocyte-derived immortalized cells in the present invention. These immortalized cells were used for the following experiments under the same conditions of culture condition, number of passages, etc.
Thus, the gene expression levels of α-fodrin and HPCAL1 were examined by performing quantitative real-time PCR using immortalized lymphocytes obtained from the migraine and healthy subjects as samples. […] The expression level of each gene was relatively quantified by the comparative Ct (threshold cycle) method based on the amplification curve obtained from the PCR.
Immortalized cells derived from lymphocytes of the migraine group and the healthy group were subjected to mRNA expression analysis in the same manner as described above. […] By using part of the immortalized cells before and after the administration of each drug, the expression level of α-fodrin gene was analyzed.

SMILES | expression level of α-fodrin gene
NC(N)=Nc1nc(CSCCC(N)=NS(N)(=O)=O)cs1 [Gaster, famotidine] | increased the expression level of α-fodrin
CC(=O)Oc1ccccc1C(=O)O [aspirin] | reduced the expression level of α-fodrin
CNS(=O)(=O)Cc1ccc2[nH]cc(CCN(C)C)c2c1 [sumatriptan] | reduced the expression level of α-fodrin
